Measured values as given in paper PMC9102066, “Cloning and Functional Characterization of Dog OCT1 and OCT2: Another Step in Exploring Species Differences in Organic Cation Transporters” (International Journal of Molecular Sciences, 2022).
Structures can show the parent of a compound that is named as a salt. Where two headings read alike, the source gives them in different places.

Legend:
mouse OCT1 = molecular target: T1, mouse OCT1 (Mus musculus, UniProt O08966); test: Uptake in HEK293 cells stably overexpressing mouse OCT1; type: in vitro ADME; details: intrinsic clearance = vmax divided by KM for each experiment
T1 construct: expressed in transfected cells; host or cells: HEK293 (Flp-In system)
T1 sequence (O08966 1-556): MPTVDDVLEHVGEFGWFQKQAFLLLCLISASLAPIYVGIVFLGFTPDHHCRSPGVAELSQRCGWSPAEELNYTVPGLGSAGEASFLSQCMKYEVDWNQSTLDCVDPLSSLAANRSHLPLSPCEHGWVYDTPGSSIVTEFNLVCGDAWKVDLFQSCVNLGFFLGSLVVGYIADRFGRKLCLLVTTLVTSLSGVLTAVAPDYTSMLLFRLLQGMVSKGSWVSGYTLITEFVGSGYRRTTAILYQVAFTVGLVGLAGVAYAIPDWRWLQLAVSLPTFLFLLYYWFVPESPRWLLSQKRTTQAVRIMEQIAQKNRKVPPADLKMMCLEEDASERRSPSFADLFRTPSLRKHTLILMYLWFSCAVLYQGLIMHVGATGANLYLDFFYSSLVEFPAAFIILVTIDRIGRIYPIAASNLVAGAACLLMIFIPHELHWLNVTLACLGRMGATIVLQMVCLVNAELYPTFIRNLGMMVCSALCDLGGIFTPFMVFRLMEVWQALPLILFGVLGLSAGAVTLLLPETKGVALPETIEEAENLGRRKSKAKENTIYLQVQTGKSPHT
Description: (§1) Cells were passaged twice a week.
(§2) Intracellular substrate concentrations were quantified using LC-MS/MS.

human OCT2 = molecular target: T2, human OCT2 (Homo sapiens, UniProt O15244); test: Uptake in HEK293 cells stably overexpressing human OCT2; type: in vitro ADME; details: for CLint ± SEM, hOCT2: intrinsic clearance = vmax divided by KM for each experiment
T2 construct: expressed in transfected cells; host or cells: HEK293 (Flp-In system)
T2 sequence (O15244 1-555): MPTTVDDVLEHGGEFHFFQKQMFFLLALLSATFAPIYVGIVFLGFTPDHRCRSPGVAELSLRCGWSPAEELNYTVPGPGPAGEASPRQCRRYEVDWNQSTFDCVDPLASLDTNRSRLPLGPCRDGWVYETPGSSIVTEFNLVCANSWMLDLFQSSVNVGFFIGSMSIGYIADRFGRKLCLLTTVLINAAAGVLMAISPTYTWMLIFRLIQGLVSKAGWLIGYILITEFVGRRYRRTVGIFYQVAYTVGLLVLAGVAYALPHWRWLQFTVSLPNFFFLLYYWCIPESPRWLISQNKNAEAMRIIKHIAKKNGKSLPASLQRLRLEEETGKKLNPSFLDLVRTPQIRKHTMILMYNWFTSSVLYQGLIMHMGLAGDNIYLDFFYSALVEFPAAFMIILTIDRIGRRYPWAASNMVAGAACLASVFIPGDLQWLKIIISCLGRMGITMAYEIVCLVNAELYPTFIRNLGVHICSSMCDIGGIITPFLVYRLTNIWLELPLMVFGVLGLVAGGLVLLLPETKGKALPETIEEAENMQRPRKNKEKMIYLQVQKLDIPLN
Description: as §1, §2

human OCT1 = molecular target: T3, human OCT1 (Homo sapiens, UniProt O15245); test: Uptake in HEK293 cells stably overexpressing human OCT1; type: in vitro ADME
T3 construct: expressed in transfected cells; host or cells: HEK293 (Flp-In system)
T3 sequence (O15245 1-554): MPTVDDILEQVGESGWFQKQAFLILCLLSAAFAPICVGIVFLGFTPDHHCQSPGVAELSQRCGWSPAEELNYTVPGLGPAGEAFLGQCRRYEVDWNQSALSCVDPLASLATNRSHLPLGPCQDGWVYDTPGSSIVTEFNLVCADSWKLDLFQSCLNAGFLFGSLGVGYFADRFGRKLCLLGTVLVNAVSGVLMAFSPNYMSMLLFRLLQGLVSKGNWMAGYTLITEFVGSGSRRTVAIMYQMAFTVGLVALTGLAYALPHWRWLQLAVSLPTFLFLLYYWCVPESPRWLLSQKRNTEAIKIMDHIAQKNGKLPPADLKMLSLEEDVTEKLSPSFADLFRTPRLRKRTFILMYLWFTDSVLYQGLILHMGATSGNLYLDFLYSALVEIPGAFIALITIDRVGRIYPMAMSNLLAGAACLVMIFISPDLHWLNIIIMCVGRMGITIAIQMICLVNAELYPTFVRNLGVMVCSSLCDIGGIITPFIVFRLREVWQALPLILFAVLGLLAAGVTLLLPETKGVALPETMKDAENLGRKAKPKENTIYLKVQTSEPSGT
Description: as §1, §2

dog OCT2 = test: Uptake in HEK293 cells stably overexpressing dog OCT2; type: in vitro ADME; details: for vmax ± SEM, dOCT2 / Km at 2 min: OCT2-mediated uptake, HEK293, 2 min; for vmax ± SEM, dOCT2: 37 °C, pH 7.4, control cells subtracted; for Km at 2 min: dog, Michaelis–Menten fit, read-out: KM ± SEM, dOCT2; for CLint ± SEM, dOCT2: intrinsic clearance = vmax divided by KM for each experiment
Description: as §1, §2

dog OCT1 = test: Uptake in HEK293 cells stably overexpressing dog OCT1; details: for vmax ± SEM, dOCT1: OCT1-mediated uptake, HEK293, 2 min, 37 °C, pH 7.4, control cells subtracted; for Km at 2 min: dog; for CLint ± SEM, dOCT1: intrinsic clearance = vmax divided by KM for each experiment
Method: The total uptake is shown for the overexpressing and control cells (left hand side). OCT1-mediated uptake (right hand side) was calculated by subtracting the uptake of control cells (pcDNA5) from the uptake of OCT1-overexpressing cells. The means and standard errors of the means are shown for at least three independent experiments.
For generation and characterization, see the Supplementary Methods, Figure S7, and [29, 47]. Cells were cultured in Dulbecco’s Modified Eagle’s Medium (DMEM) supplemented with 10% FBS, 100 U/mL penicillin, and 100 µg/mL streptomycin at 37 °C and 5% CO2. Cells were passaged twice a week.
At 48 h prior to the experiment, 6 × 10^5 cells were seeded per well in 12-well plates pre-coated with poly-D-lysine.
Cellular uptake experiments were performed at 37 °C and pH 7.4 using Hanks’ Buffered Salt Solution (HBSS) supplemented with 10 mM HEPES (referred to as HBSS+ in the following). Cells were washed with 1 mL pre-warmed (37 °C) HBSS+ and uptake was initiated by adding 400 µL of pre-warmed HBSS+ containing the substrate. Uptake was allowed for exactly 2 min and stopped by adding 2 mL ice-cold HBSS+. Cells were washed twice with 2 mL ice-cold HBSS+ then lysed with 80% acetonitrile supplemented with internal standard. The intracellularly accumulated substrate concentrations were measured using LC-MS/MS as described in the following and normalized to the amount of total protein in the samples as measured using the bicinchoninic acid assay.
Intracellular substrate concentrations were quantified using LC-MS/MS. […] The pellet was reconstituted with 200 µL 0.1% formic acid and between 5 and 10 µL was injected into the LC-MS/MS system (Table S2).
An API4000 QTRAP tandem mass spectrometer with ESI interface (AB SCIEX, Darmstadt, Germany) coupled to a Shimadzu Nexera X2 UHPLC system with LC 30AD pumps and SiL 30AC autosampler (Shimadzu, Duisburg, Germany) was used for analysis.
Intrinsic clearance CLint was calculated by dividing vmax by KM for each experiment. Kinetic parameters were compared between OCT1 orthologs using an ANOVA followed by Tukey’s honestly significant difference post hoc comparisons in SPSS Statistics version 28 (SPSS Inc., IBM, Chicago, IL, USA).

[1] = substrate: CC(Cc1ccc(O)cc1)NCC(O)c1cc(O)cc(O)c1; test: cells, lysate or membranes named; details: other: OCT1-mediated uptake, HEK293, 2 min, Michaelis–Menten fit; pH 7.4
[2] = substrate: O=C(O[C@H]1C[C@H]2CC[C@@H](C1)[N+]21CCCC1)C(O)(c1ccccc1)c1ccccc1; test: Uptake in HEK293 cells stably overexpressing human OCT1; type: in vitro ADME; details: other: OCT1-mediated uptake, HEK293, 2 min, Michaelis–Menten fit; pH 7.4
Method: (§3) Cellular uptake experiments were performed at 37 °C and pH 7.4 using Hanks’ Buffered Salt Solution (HBSS) supplemented with 10 mM HEPES (referred to as HBSS+ in the following). Cells were washed with 1 mL pre-warmed (37 °C) HBSS+ and uptake was initiated by adding 400 µL of pre-warmed HBSS+ containing the substrate. Uptake was allowed for exactly 2 min and stopped by adding 2 mL ice-cold HBSS+. Cells were washed twice with 2 mL ice-cold HBSS+ then lysed with 80% acetonitrile supplemented with internal standard. The intracellularly accumulated substrate concentrations were measured using LC-MS/MS as described in the following and normalized to the amount of total protein in the samples as measured using the bicinchoninic acid assay [49].

[3] = substrate: CCCC[N+]1(C)[C@@H]2C[C@@H](OC(=O)[C@H](CO)c3ccccc3)C[C@H]1[C@@H]1O[C@@H]12; test: as above; type: in vitro ADME; details: other: OCT1-mediated uptake, HEK293, 2 min, Michaelis–Menten fit; pH 7.4
Method: as §3

**Q.** With CN(C)C(=N)N=C(N)N [Metformin, metformin hydrochloride] as the molecule, how does the “CLint ± SEM, mOCT1” value (mouse OCT1) read?
**A.** The value was 38.7 ± 6.23 µL × min^−1 × mg Protein^−1.

**Q.** What about the “vmax ± SEM, hOCT2” value (human OCT2; OCT2-mediated uptake, HEK293, 2 min, 37 °C, pH 7.4, control cells subtracted) of the same molecule?
**A.** Its value is 29,650 ± 1457 pmol × min^−1 × mg Protein^−1.

**Q.** What about the Km at 2 min (human OCT2; human, HEK293 cells stably overexpressing human OCT2, pH 7.4, OCT2-mediated uptake, HEK293, 2 min, Michaelis–Menten fit, read-out: KM ± SEM, hOCT2) of the same molecule?
**A.** Its Km at 2 min is 766 ± 95.4 µM.

**Q.** What about the “CLint ± SEM, hOCT2” value (human OCT2) of the same molecule?
**A.** Its value is 39.9 ± 5.27 µL × min^−1 × mg Protein^−1.

**Q.** What about the “vmax ± SEM, hOCT1” value (human OCT1; OCT1-mediated uptake, HEK293, 2 min, 37 °C, pH 7.4, control cells subtracted) of the same molecule?
**A.** Its value is 10,465 ± 1306 pmol × min^−1 × mg Protein^−1.

**Q.** What about the Km at 2 min (human OCT1; human, HEK293 cells stably overexpressing human OCT1, pH 7.4, OCT1-mediated uptake, HEK293, 2 min, Michaelis–Menten fit, read-out: KM ± SEM, hOCT1) of the same molecule?
**A.** Its Km at 2 min is 1090 ± 297 µM.

**Q.** What about the “vmax ± SEM, dOCT2” value (dog OCT2) of the same molecule?
**A.** Its value is 21,578 ± 606 pmol × min^−1 × mg Protein^−1.

**Q.** And the Km at 2 min (dog OCT2; HEK293 cells stably overexpressing dog OCT2, pH 7.4)?
**A.** The Km at 2 min was 365 ± 11.5 µM.

**Q.** What about the “CLint ± SEM, dOCT2” value (dog OCT2) of the same molecule?
**A.** Its value is 59.2 ± 2.76 µL × min^−1 × mg Protein^−1.

**Q.** And the “vmax ± SEM, dOCT1” value (dog OCT1)?
**A.** Its value is 11,373 ± 714 pmol × min^−1 × mg Protein^−1.

**Q.** And the Km at 2 min (dog OCT1; HEK293 cells stably overexpressing dog OCT1, pH 7.4)?
**A.** Its Km at 2 min is 204 ± 41.8 µM.

**Q.** What about the “CLint ± SEM, dOCT1” value (dog OCT1) of the same molecule?
**A.** The value was 63.1 ± 12.0 µL × min^−1 × mg Protein^−1.

**Q.** What does the source list for O=C(O[C@H]1C[C@H]2CC[C@@H](C1)[N+]21CCCC1)C(O)(c1ccccc1)c1ccccc1 [Trospium, trospium chloride]?
**A.** CLint ± SEM, mOCT1 (mouse OCT1): 180 ± 37.5 µL × min^−1 × mg Protein^−1; CLint ± SEM, hOCT2 (human OCT2): 278 ± 40.5 µL × min^−1 × mg Protein^−1; CLint ± SEM, hOCT1 (human OCT1; intrinsic clearance = vmax divided by KM for each experiment): 117 ± 12.7 µL × min^−1 × mg Protein^−1; vmax ± SEM, dOCT2 (dog OCT2): 224 ± 14.6 pmol × min^−1 × mg Protein^−1; fold lower affinity by dog OCT2 than human OCT2 (dog OCT2; dog OCT2 versus human OCT2): 5.7 fold; Km at 2 min (dog OCT2; pH 7.4): 2.18 ± 0.27 µM; CLint ± SEM, dOCT2 (dog OCT2): 106 ± 8.78 µL × min^−1 × mg Protein^−1; vmax ± SEM, dOCT1 (dog OCT1): 835 ± 64.9 pmol × min^−1 × mg Protein^−1; fold higher transport capacity by dog than mouse OCT1 (dog OCT1; dog OCT1 versus mouse OCT1): 3.4 fold; fold lower affinity by dog than mouse OCT1 (dog OCT1; dog OCT1 versus mouse OCT1): 4.4 fold; Km at 2 min (dog OCT1; pH 7.4): 5.72 ± 0.3 µM; CLint ± SEM, dOCT1 (dog OCT1): 146 ± 10.3 µL × min^−1 × mg Protein^−1

B1: human OCT1 (Homo sapiens) (protein)
chain: MPTVDDILEQVGESGWFQKQAFLILCLLSAAFAPICVGIVFLGFTPDHHCQSPGVAELSQRCGWSPAEELNYTVPGLGPAGEAFLGQCRRYEVDWNQSALSCVDPLASLATNRSHLPLGPCQDGWVYDTPGSSIVTEFNLVCADSWKLDLFQSCLNAGFLFGSLGVGYFADRFGRKLCLLGTVLVNAVSGVLMAFSPNYMSMLLFRLLQGLVSKGNWMAGYTLITEFVGSGSRRTVAIMYQMAFTVGLVALTGLAYALPHWRWLQLAVSLPTFLFLLYYWCVPESPRWLLSQKRNTEAIKIMDHIAQKNGKLPPADLKMLSLEEDVTEKLSPSFADLFRTPRLRKRTFILMYLWFTDSVLYQGLILHMGATSGNLYLDFLYSALVEIPGAFIALITIDRVGRIYPMAMSNLLAGAACLVMIFISPDLHWLNIIIMCVGRMGITIAIQMICLVNAELYPTFVRNLGVMVCSSLCDIGGIITPFIVFRLREVWQALPLILFAVLGLLAAGVTLLLPETKGVALPETMKDAENLGRKAKPKENTIYLKVQTSEPSGT
notes: expressed in transfected cells; host or cells: HEK293 (Flp-In system)
**Q.** How did the Km [1] turn out when B1 was run?
**A.** The Km was 1.19 ± 0.09 µM.

**Q.** What about the Km [2] of the same molecule?
**A.** Its Km is 13.3 ± 1.58 µM.

**Q.** And the Vmax [2]?
**A.** The Vmax was 0.0015 µmol/min/mg.

**Q.** And the Vmax/Km [2]?
**A.** The Vmax/Km was 117 µL/min/mg.

**Q.** And the Km [3]?
**A.** Its Km is 15.0 ± 1.67 µM.

**Q.** What about the Vmax [3] of the same molecule?
**A.** Its Vmax is 0.00125 µmol/min/mg.

**Q.** What about the Vmax/Km [3] of the same molecule?
**A.** The Vmax/Km was 84.4 µL/min/mg.
